Results taken from PubChem BioAssay AID743491 (The Scripps Research Institute Molecular Screening Center, 2014).
Active and inactive are the calls of the source. No rule for the calls is given here.

Molecular target: Trace amine-associated receptor 1 (Homo sapiens) (UniProt Q96RJ0)
Experiment: TAAR1 agonists, concentration-response, dose response, cell-based, fluorescence, MedChem round 1 (AID 743491)
Details: cells expressing human TAAR1, fluorescence agonist read-out

Sequence of Trace amine-associated receptor 1 (Homo sapiens) (Q96RJ0 whole entry, looked up): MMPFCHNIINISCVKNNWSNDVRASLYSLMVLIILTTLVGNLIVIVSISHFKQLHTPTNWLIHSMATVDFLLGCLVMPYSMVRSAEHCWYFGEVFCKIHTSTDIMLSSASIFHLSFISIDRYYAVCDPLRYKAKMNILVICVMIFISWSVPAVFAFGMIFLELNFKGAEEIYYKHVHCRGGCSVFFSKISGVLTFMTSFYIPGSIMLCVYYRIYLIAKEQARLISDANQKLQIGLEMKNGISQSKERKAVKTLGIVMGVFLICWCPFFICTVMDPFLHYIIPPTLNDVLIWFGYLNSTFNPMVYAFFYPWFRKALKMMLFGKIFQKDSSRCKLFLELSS

| EC50 | SMILES |
| --- | --- |
| > 29900 nM (inactive) | O=C(CCN1C[C@@H](C(=O)O)[C@H](c2cccc(F)c2)C1)NC1CC1 |
| > 29900 nM (inactive) | O=C(CCN1CCC(O)(c2ccccc2)C1)c1ccc2c(c1)OCCO2 (stereo unspecified) |
| > 29900 nM (inactive) | O=C(CCN1C[C@@H](C(=O)O)[C@H](c2ccccc2)C1)NCc1cccs1 |
| 678 nM | CC(CN1CCCC1Cc1ccccc1)C(=O)c1ccc2c(c1)OCCO2 (stereo unspecified) |
| 378 nM | CC1CN(CCC(=O)c2ccc3c(c2)OCCO3)CC1c1ccccc1 (stereo unspecified) |
| > 29900 nM (inactive) | O=C(CCN1C[C@@H](C(=O)O)[C@H](c2ccccc2)C1)NC1CCCC1 |
| inactive | CC(CN1CCC(c2ccccc2)C1)C(=O)c1ccc2c(c1)OCCO2 (stereo unspecified) |
| 174 nM | O=C(CCN1CCC(c2ccccc2)C1)c1ccccc1 (stereo unspecified) |
| 114 nM | Cc1ccc(C(=O)CCN2CCC(c3ccccc3)C2)cc1 (stereo unspecified) |
| > 29900 nM (inactive) | O=C(CCN1CCC(O)(c2ccc(F)cc2)C1)c1ccc2c(c1)OCCO2 (stereo unspecified) |

| SMILES | EC50 |
| --- | --- |
| NC(=O)CCN1C[C@H](c2ccccc2)[C@@H]2[C@H]1C1CCN2CC1 | > 29900 nM (inactive) |
